Among the data in the Deep4Chem optical property database are emission maximum values, retold here.

The nature of this data set: solvent given as SMILES.

Consider `COCCOc1cc(C=O)c(OCCOC)cc1C=O`, for which the emission maximum is recorded as 478 nm (in CC(C)(C)O); 479 nm (in CC(C)CO); 479 nm (in CC(C)O); 462 nm (in CCCCO); 463 nm (in CCCO); 464 nm (in CCO). Further, the emission maximum runs as follows: (in CN(C)C=O) 465 nm; (in CNC=O) 450 nm; (in CO) 466 nm; (in NC=O) 456 nm; (in O) 495 nm.
Where the note is “in CO”, `COc1ccc(-c2nc(-c3cccc(C#N)c3)[nH]c2-c2ccc(OC)cc2)cc1` came in with an emission maximum of 478 nm.
With `COC(=O)C(Cc1ccc2oc(-c3ccncc3)nc2c1)NC(=O)OC(C)(C)C` (centres undefined), the emission maximum runs as follows: (in CC1CCCCC1) 356.74 nm; (in CC#N) 374.95 nm; (in CO) 384.74 nm.
Take `CC(=O)Nc1cc2ccc3cccc4ccc(c1)c2c34`: the emission maximum is, setting by setting: (in CC#N) 388 nm; (in CCCCOCCCC) 389 nm; (in CO) 387 nm.
On to `CCCCN(CCCC)c1ccc2c(c1)C#CC#Cc1cc(C(F)(F)F)ccc1C#Cc1cc(c3cc1C#Cc1ccc(N(CCCC)CCCC)cc1C#CC#Cc1cc(C(F)(F)F)ccc1C#C3)C#C2`, for which the emission maximum reads like this: (in ClCCl) 558 nm; (in c1ccccc1) 522 nm.
With `O=c1[nH]c(=O)c2nc3ccccc3nc2[nH]1`, the emission maximum (in CC#N) worked out at 432 nm.
`CCCCCCCCCCCCn1cccc1/C=C/c1cc(OCCCC)c(/C=C/c2cccn2CCCCCCCCCCCC)cc1OCCCC` yielded an emission maximum (in Cc1ccccc1) of 472 nm.
On to `CC1(C)CC(/C=C/c2ccc(-n3cncn3)cc2)=CC(=C(C#N)C#N)C1`, for which the emission maximum came out at 520 nm (in C1CCOC1); 522 nm (in CC#N); 518 nm (in CCO); 515 nm (in CCOC(C)=O); 518 nm (in ClCCl); 511 nm (in c1ccccc1).
The molecule `Cc1cc(C)cc(C)c1` returned an emission maximum (in C1CCCCC1) of 294.72 nm.
Consider `CC(C)(C)c1ccc(-c2nc(-c3ccc(-n4c5ccccc5c5c6oc7ccccc7c6ccc54)cc3)nc(-c3ccc(C(C)(C)C)cc3)n2)cc1`, for which the emission maximum (in C1CCOC1) was determined as 415.2 nm.
With `Cc1cc(C)n2c1C=C1c3ccccc3C(c3cccn3C)=[N+]1[B-]2(F)F`, the emission maximum stood at 608 nm (in C1CCOC1); 606 nm (in CC#N); 605 nm (in CCCCCC); 605 nm (in CO); 613 nm (in Cc1ccccc1); 611 nm (in ClCCl).
`Cc1ccc(-c2ccc(/C=C/c3ccc(Br)n3C)cn2)nc1` returned an emission maximum (in CC#N) of 480 nm.
With `O=C(c1ccccc1)c1cc2ccc1CCc1ccc(cc1-c1ccc(N(c3ccccc3)c3ccccc3)cc1)CC2`, the emission maximum reads like this: (in Cc1ccccc1) 492 nm; (in c1cc(-n2c3ccccc3c3ccccc32)cc(-n2c3ccccc3c3ccccc32)c1) 481.13 nm.
Regarding `O=C(O)COc1cccc(-c2c3nc(cc4ccc([nH]4)c(-c4cccc(OCC(=O)O)c4)c4nc(cc5ccc2[nH]5)CC4)CC3)c1`, the emission maximum (in CS(C)=O) is 738 nm.
For the molecule `CCCCCCOc1ccc2c(c1)-c1cc3c(cc1[Si]2(C)C)-c1ccccc1[Si]3(C)C`, the emission maximum (in ClCCl) is listed as 387 nm.
Turning to `CC(C)c1cc(N(C)C)c(C#N)c2c1-c1cccc3cccc-2c13`, under “in O”, the emission maximum is 554 nm.
Consider `CC(C)[Si](C#Cc1ccc(C#C[Si](C(C)C)(C(C)C)C(C)C)c2nc3c4ccccc4c(=O)c4ccccc4c3nc12)(C(C)C)C(C)C`, for which, where the note is “in ClCCl”, the emission maximum was 455 nm.
The molecule `CC(C)(C)[Si](C)(C)c1cccc2ccccc12` yielded an emission maximum (in C1CCCCC1) of 329 nm.
